The test system of assay [1] is NCIH929.1 cells. Briefly: Cell viability assay for Table 1 (CellTiter-Glo 2.0, ATP quantification, 96 hr). The format is cell-based. The settings on record: NCIH929.1 cell viability, top concentration 1 μM, 10 points half log titration, cytostatic control. On the procedure:
Example 171. Cell Viability Assay for Table 1
RPMI 1640 medium, fetal bovine serum (FBS) and 2-mercaptoethanol were purchased from Gibco (Grand Island, N.Y., USA). CellTiter-Glo® 2.0 Assay was purchased from Promega (Madison, Wis., USA). NCIH929.1 cell line was purchased from ATCC (Manassas, Va., USA). Cell culture flasks and 384-well microplates were acquired from VWR (Radnor, Pa., USA).
At the same day of compound treatment, CellTiter-Glo® 2.0 was added to a plate with cells treated in the absence of the test compound to establish Cytostatic control value (Gm).

Assay [2] deals with NCIH929.1 cells. The assay can be described thus: Cell viability assay for Table 2 (CellTiter-Glo 2.0, ATP quantification, 96 hr). The format is cell-based. Conditions: 96 h, NCIH929.1 cell viability, 96 hr, top concentration 1 μM, 14 points half log titration; read-out: IC50. The text has this:
Cell Viability Assay for Table 2
CellTiter-Glo® 2.0 Assay was purchased from Promega (Madison, Wis., USA). NCIH929.1 cell line was purchased from ATCC (Manassas, Va., USA). Cell culture flasks and 384-well microplates were acquired from VWR (Radnor, Pa., USA).

For seven molecules, GI50 and IC50 results are on record in patent US20230082430A1 (C4 Therapeutics, Inc., priority 2019, published 2023).

Some results are limits rather than exact numbers.

As a reminder, the GI50 is the concentration at which growth is held to half of that of the control. Low values mean greater sensitivity of the cells, high ones lower sensitivity of the cells. In the assay on NCIH929.1 cells [1], `CC(C)(C)OC(=O)N1CCC(n2cc(Cc3ccc4c5c(cccc35)C(=O)N4C3CCC(=O)NC3=O)cn2)CC1` (stereo not shown) [Compound 2, tert-Butyl 4-(4-((1-(2,6-Dioxopiperidin-3-yl)-2-oxo-1,2-dihydrobenzo[cd]indol-6-yl)methyl)-1H-pyrazol-1-yl)piperidine-1-carboxylate] displayed a 50% growth inhibitory concentration (GI50) of less than 1 nM. For the molecule `O=C1CCC(N2C(=O)c3cccc4c(Cc5cnn(C6CCN(C(=O)C78C9C%10C%11C9C7C%11C%108)CC6)c5)ccc2c34)C(=O)N1` (stereo not shown) [Compound 3, 3-(6-((1-(1-(Cubane-1-carbonyl)piperidin-4-yl)-1H-pyrazol-4-yl)methyl)-2-oxobenzo[cd]indol-1(2H)-yl)piperidine-2,6-dione], the GI50 in the assay on NCIH929.1 cells [1] was less than 1 nM. Turning to `CC1(C(=O)N2CCC(n3cc(Cc4ccc5c6c(cccc46)C(=O)N5C4CCC(=O)NC4=O)cn3)CC2)CCC1` (stereo not shown) [Compound 4, 3-(6-((1-(1-(1-Methylcyclobutane-1-carbonyl)piperidin-4-yl)-1H-pyrazol-4-yl)methyl)-2-oxobenzo[cd]indol-1(2H)-yl)piperidine-2,6-dione], the 50% growth inhibitory concentration (GI50) with NCIH929.1 cells [1] is less than 1 nM. In the assay with NCIH929.1 cells [1], `CC1(n2cc(Cc3ccc4c5c(cccc35)C(=O)N4C3CCC(=O)NC3=O)cn2)CCN(C(=O)C23C4C5C6C4C2C6C53)CC1` (stereo not shown) [Compound 18, 3-(6-((1-(1-(Cubane-1-carbonyl)-4-methylpiperidin-4-yl)-1H-pyrazol-4-yl)methyl)-2-oxobenzo[cd]indol-1(2H)-yl)piperidine-2,6-dione] registered a GI50 of less than 1 nM.

As a reminder, the IC50 is the midpoint of a concentration-inhibition curve. For the molecule `CC1(C(=O)N2CCC(c3cccc(Cc4ccc5c6c(cccc46)C(=O)N5C4CCC(=O)NC4=O)c3)CC2)CCC1` (stereo not shown) [Compound 290, 3-[6-[[3-[1-(1-methylcyclobutanecarbonyl)-4-piperidyl]phenyl]methyl]-2-oxo-benzo[cd]indol-1-yl]piperidine-2,6-dione], the IC50 in the assay with NCIH929.1 cells [2] is less than 1 nM. The same measure, in the same setting: to `CC(C)(C)OC(=O)N1CC2CC(C(=O)N3CCC(n4cc(Cc5ccc6c7c(cccc57)C(=O)N6C5CCC(=O)NC5=O)cn4)CC3)(C2)C1` (stereo not shown) [Compound 292, tert-butyl 1-(4-(4-((1-(2,6-dioxopiperidin-3-yl)-2-oxo-1,2-dihydrobenzo[cd]indol-6-yl)methyl)-1H-pyrazol-1-yl)piperidine-1-carbonyl)-3-azabicyclo[3.1.1]heptane-3-carboxylate] belongs less than 1 nM. Turning to `CN1C(=O)CCC(N2C(=O)c3cccc4c(Cc5cnn(C6CCN(CC7(C)CCC7)CC6)c5)ccc2c34)C1=O` (stereo not shown) [Compound 294, 1-methyl-3-(6-((1-(1-((1-methylcyclobutyl)methyl)piperidin-4-yl)-1H-pyrazol-4-yl)methyl)-2-oxobenzo[cd]indol-1(2H)-yl)piperidine-2,6-dione], the concentration for half-maximal inhibition (IC50) with NCIH929.1 cells [2] was less than 100 nM.
